Source: ChEMBL document CHEMBL1130220, “Synthesis of willardiine and 6-azawillardiine analogs: pharmacological characterization on cloned homomeric human AMPA and kainate receptor subtypes” (J Med Chem, 1997)
pEC50, pKi: −log10 of the molar value.

How the values were obtained:
[1] = molecular target: Glutamate receptor 4 (Homo sapiens, UniProt P48058); test: biochemical
[2] = molecular target: Glutamate receptor 1 (Homo sapiens, UniProt P42261); test: biochemical
[3] = molecular target: Glutamate receptor 2 (Homo sapiens, UniProt P42262); test: biochemical
[4] = molecular target: Glutamate receptor 1 (Rattus norvegicus, UniProt P19490); test: Potency on Ionotropic glutamate receptor AMPA in hippocampal neurons; type: functional, tissue-based, Hippocampus
[5] = molecular target: Glutamate receptor ionotropic, kainate 3 (Rattus norvegicus, UniProt P42264); test: Potency on Ionotropic glutamate receptor kainate in dorsal root ganglion cells; type: functional, cell-based
Glutamate receptor ionotropic, kainate 3, sequence (P42264 whole entry): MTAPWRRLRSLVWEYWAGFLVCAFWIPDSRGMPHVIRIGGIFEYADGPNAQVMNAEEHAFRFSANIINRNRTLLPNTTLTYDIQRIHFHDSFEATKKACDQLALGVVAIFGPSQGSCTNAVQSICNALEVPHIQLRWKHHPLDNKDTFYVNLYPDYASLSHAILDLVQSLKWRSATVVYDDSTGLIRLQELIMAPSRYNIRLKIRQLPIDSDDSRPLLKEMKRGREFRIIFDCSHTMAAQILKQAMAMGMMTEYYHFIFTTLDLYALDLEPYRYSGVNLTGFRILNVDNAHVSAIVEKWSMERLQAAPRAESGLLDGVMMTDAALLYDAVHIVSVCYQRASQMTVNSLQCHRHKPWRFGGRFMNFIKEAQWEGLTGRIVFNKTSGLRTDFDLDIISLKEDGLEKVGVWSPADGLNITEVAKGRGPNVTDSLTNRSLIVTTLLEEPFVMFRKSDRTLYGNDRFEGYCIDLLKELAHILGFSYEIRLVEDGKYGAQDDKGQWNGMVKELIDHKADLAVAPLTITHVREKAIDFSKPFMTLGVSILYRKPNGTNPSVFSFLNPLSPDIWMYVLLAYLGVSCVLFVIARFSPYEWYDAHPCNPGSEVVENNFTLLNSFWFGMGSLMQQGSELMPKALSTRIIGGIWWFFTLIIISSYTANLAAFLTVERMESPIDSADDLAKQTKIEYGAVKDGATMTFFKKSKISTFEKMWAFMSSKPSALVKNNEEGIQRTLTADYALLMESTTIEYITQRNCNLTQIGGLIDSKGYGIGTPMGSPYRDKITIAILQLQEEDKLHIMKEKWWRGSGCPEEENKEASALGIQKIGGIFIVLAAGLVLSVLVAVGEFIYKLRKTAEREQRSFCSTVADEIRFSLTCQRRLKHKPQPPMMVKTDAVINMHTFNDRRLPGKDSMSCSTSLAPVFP

Glutamate receptor 1 (Homo sapiens, UniProt P42261), sequence (P42261 whole entry): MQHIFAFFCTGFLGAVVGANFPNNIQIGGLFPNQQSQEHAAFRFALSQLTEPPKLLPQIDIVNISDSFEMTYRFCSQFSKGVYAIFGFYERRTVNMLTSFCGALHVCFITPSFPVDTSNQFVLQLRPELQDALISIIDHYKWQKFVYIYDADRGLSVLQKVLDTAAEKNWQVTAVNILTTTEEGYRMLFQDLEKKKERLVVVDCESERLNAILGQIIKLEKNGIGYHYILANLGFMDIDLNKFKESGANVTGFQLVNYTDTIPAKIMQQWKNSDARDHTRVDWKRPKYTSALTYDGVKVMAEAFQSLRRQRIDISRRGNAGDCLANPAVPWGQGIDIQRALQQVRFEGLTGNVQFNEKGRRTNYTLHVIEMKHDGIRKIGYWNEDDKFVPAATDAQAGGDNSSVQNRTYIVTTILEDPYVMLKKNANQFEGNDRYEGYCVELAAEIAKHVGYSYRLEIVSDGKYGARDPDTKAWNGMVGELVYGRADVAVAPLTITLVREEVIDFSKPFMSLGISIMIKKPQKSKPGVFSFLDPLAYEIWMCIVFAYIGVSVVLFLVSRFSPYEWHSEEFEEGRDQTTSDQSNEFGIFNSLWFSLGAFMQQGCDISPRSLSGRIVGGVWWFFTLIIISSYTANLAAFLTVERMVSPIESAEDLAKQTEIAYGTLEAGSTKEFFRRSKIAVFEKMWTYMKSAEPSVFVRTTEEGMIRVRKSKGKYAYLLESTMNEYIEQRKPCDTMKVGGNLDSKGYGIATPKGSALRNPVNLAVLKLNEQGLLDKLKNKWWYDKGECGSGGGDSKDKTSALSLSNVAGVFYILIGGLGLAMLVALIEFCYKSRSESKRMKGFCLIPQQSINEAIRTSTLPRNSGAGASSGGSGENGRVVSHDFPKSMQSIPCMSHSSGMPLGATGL
Glutamate receptor 2, sequence (P42262 whole entry): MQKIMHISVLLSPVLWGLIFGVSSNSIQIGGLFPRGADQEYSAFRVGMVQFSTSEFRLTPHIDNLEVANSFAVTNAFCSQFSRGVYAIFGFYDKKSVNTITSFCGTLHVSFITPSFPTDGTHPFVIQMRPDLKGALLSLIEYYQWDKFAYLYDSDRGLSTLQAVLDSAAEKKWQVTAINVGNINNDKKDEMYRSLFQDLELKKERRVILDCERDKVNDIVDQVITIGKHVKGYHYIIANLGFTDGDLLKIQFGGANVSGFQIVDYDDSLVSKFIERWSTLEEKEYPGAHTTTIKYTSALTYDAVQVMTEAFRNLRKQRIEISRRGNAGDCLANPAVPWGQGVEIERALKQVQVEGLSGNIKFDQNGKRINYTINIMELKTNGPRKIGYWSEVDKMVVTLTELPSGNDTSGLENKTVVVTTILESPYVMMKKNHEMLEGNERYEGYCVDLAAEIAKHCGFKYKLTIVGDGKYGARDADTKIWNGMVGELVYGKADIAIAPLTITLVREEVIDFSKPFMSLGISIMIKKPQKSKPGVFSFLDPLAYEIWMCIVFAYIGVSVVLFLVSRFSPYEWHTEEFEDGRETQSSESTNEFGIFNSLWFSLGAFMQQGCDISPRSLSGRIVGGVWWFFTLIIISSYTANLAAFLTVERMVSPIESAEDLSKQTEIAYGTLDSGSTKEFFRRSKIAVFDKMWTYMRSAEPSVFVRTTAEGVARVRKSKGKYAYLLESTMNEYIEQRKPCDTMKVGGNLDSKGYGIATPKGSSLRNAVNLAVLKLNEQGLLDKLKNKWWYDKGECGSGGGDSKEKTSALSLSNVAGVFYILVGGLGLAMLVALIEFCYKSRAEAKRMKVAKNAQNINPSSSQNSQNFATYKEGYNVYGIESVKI
Glutamate receptor 4, sequence (P48058 whole entry): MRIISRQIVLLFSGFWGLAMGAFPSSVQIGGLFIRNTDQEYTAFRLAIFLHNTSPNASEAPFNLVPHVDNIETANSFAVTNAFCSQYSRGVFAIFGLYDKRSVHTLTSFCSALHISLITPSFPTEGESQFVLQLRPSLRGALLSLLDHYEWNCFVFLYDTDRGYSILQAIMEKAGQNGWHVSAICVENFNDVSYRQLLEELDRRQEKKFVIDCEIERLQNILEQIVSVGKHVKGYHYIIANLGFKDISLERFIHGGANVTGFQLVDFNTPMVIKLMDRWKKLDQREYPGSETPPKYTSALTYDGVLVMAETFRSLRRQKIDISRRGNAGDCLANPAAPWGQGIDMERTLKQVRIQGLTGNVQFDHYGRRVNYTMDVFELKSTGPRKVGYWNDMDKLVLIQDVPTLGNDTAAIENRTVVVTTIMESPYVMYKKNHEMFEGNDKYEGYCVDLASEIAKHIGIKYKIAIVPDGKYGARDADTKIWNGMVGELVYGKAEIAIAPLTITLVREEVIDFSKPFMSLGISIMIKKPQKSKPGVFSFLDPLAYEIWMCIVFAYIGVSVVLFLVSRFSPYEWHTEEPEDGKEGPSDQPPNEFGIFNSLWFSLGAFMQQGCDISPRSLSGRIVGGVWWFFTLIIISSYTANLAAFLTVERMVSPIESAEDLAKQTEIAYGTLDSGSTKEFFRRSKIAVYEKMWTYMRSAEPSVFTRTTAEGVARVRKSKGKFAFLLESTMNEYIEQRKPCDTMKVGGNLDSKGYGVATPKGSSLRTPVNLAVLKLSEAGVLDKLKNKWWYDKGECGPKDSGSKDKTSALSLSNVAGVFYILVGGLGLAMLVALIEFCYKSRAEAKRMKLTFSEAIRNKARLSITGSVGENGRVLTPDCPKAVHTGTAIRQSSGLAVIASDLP
Glutamate receptor 1 (Rattus norvegicus, UniProt P19490), sequence (P19490 whole entry): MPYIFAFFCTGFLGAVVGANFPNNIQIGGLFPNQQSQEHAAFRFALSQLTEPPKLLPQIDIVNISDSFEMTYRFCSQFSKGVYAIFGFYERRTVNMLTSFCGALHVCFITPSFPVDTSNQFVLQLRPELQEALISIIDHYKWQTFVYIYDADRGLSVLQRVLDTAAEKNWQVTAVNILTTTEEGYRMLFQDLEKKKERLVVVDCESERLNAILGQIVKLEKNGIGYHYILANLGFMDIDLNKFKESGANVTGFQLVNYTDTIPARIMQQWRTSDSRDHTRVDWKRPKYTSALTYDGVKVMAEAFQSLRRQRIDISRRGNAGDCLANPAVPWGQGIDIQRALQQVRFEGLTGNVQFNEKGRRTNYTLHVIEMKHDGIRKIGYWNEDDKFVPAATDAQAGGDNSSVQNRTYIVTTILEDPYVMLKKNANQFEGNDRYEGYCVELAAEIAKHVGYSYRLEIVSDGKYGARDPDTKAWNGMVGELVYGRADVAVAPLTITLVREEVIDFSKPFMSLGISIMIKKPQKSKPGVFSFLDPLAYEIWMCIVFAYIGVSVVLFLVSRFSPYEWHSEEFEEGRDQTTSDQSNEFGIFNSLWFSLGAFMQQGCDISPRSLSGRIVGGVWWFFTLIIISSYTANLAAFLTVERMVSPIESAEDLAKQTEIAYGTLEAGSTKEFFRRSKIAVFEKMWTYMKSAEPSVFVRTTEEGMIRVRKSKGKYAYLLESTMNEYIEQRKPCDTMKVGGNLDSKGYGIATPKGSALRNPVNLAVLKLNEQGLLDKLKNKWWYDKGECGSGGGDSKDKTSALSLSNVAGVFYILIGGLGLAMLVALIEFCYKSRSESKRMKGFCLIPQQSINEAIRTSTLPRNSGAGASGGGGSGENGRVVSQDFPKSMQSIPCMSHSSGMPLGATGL

Structure (SMILES) | pKi [1] | pKi [2] | pKi [3] | pEC50 [4] | pEC50 [5]
N[C@@H](Cn1cc(Cl)c(=O)[nH]c1=O)C(=O)O | 6.35 | 7.19 | – | – | –
N[C@@H](Cn1cc(F)c(=O)[nH]c1=O)C(=O)O | 6.52 | 7.83 | – | – | –
N[C@@H](Cn1cc(Br)c(=O)[nH]c1=O)C(=O)O | 6.34 | 7.04 | – | – | –
N[C@@H](Cn1ccc(=O)[nH]c1=O)C(=O)O [(S)-WILLARDIINE] | 5.05 | 6.41 | – | – | –
N[C@@H](Cn1nc(I)c(=O)[nH]c1=O)C(=O)O | 7.70 | 7.13 | 7.00 | – | –
Cc1nn(C[C@H](N)C(=O)O)c(=O)[nH]c1=O | 7.05 | 6.62 | 6.43 | – | –
N[C@@H](Cn1ncc(=O)[nH]c1=O)C(=O)O | 6.72 | 6.79 | 6.34 | – | –
N[C@@H](Cn1nc(Cl)c(=O)[nH]c1=O)C(=O)O | 8.44 | 8.15 | 7.78 | – | –
N[C@@H](Cn1cc(I)c(=O)[nH]c1=O)C(=O)O | 6.01 | 6.79 | – | 4.72 | 6.85
N[C@@H](Cn1cc([N+](=O)[O-])c(=O)[nH]c1=O)C(=O)O | 6.68 | 6.55 | – | – | –
N[C@@H](Cn1nc(Br)c(=O)[nH]c1=O)C(=O)O | 8.10 | 7.54 | 7.71 | – | –
